How the values were obtained:
HEK293 cells = experiment: Cell toxicity in HEK293 cells during labelling; type: cell-based; details: 100 μM, 24 h
Procedure: Briefly, HEK293 cells grown in DMEM+10% FBS media at 37° C. with 5% CO2 were transiently transfected with pT-Rex-DEST30-intein-EGFP-NLS or pT-Rex-DEST30-intein-ECFP-NLS using Polyfect™ (Qiagen, USA). See FIGS. 12ii. and iii., respectively, for in vivo intein cleavage for the expressed EGFP and ECFP proteins expressed in HEK293 cells. After 36 hours of protein expression, cells were washed in 1×PBS and cystine-free DMEM (Sigma) was added. The biotin-thioester probe, probe 5, was added to a final concentration of 100 μM (10-100 μM also worked) and cells were incubated for another 24 h. […] Cells were harvested by centrifugation at 1000 rpm for 10 min and resuspended in 1×PBS. Washings were repeated at least 3 times, and cells were lysed in PBS using glass beads. Magnetic streptavidin beads (Promega, USA) were used to pull-down all biotinylated proteins in the cell lysate. Beads were washed twice in 1× PBS, then boiled in 1×SDS loading buffer and loaded onto a 12% SDS-PAGE. Western blotting was used to assess biotinylated proteins, as described above.

[1] = test system: N-terminal cysteine ECFP-NLS; experiment: Fluorescence microscopy / FRET of HEK293 cells expressing N-terminal cysteine ECFP-NLS; type: cell-based; details: HEK293 cells transfected with ECFP-NLS
From the text: Intein-fused EGFP and ECFP (enhanced cyan fluorescent protein) were constructed, in which an extra N-terminal cysteine was introduced into both EGFP and ECFP, as described above. To facilitate evaluation of the labelling, as well as to assess whether the strategy targets proteins expressed in subcellular compartments of mammalian cells (e.g. nucleus), a nuclear localization sequence (NLS) was fused to ECFP, generating ECFP-NLS. The intein-fused EGFP gene was amplified from the above bacterial construct, while the ECFP gene with a nuclear localization sequence (ECFP-NLS) was amplified from pECFP-Nuc (Clontech, USA) and cloned first into the pTWIN1 vector. Using the GATEWAY™ cloning system (Invitrogen, USA), the intein-fused genes were cloned into the donor vector pDONR201, followed by recombination of the cloned genes into a mammalian expression vector pT-Rex-DEST30 (Invitrogen). All constructs were sequence verified. […]
Fluorescence microscopy experiments were also performed using HEK293 mammalian cells. […] The fluorescence images were obtained using the excitation and emission channels described above for the bacterial experiments.

[2] = test system: control proteins without N-terminal cysteine (GST, Protease, Lipase, Papain, Pepsin); experiment: In vitro labelling of control proteins without an N-terminal cysteine (site-specificity); type: biochemical; details: 5 control proteins with no or only internal cysteines, 60 min incubation
Procedure: Probes were prepared as 200 μM stocks (25× in DMSO) and stored at −20° C. In a typical labelling reaction, 6 μl of each probe (final concentration: 8 μM) was added to 50 μl of pure protein (1 mg/ml) dissolved in 1×PBS (final concentration of protein: ˜[…]), with or without 1 mM DTT, and the reaction was topped up with 1×PBS to a final volume of 150 μl. DTT was added to experiments, where live cells were used, to reduce background labelling. At specific time intervals, 15 μl of the reaction was withdrawn and quenched by addition of 1.7 μl of 100 mM cysteine to the reaction mixture (final concentration of cysteine: 10 mM), followed by denaturation with SDS-PAGE loading dye at 95° C. for 3 min. The loading dye also serves to hydrolyze the diacetate groups on probes 2 and 4, thereby releasing the fluorescence.
Probe 3 was used in the labelling reaction, and the reaction was performed as mentioned above with 60 min incubation time. All proteins are available from Sigma (St Louis, USA). (Lane 1. GST (cat #: G-4385); Lane 2. Protease (P-5380); Lane 3. Lipase (L-9031); Lane 4. Papain (P-4762); Lane 5. Pepsin (P-6887); Lane 6. BioRad Precision Plus Protein Standards).

N-terminal cysteine EGFP = N-terminal cysteine EGFP (Aequorea victoria, UniProt P42212, F64L/H231L/S65T); details: labelled bacterial cells expressing EGFP, excitation 470±20 nm, emission 605±30 nm
Procedure: The FRET channel for CFP/TMR pair was recorded using filters with an excitation: 436±20 nm and emission: 620±20 nm (Chroma). The FRET channel for GFP/TMR pair was using filters with excitation=470±20 nm and emission=605±30 nm (Zeiss).

N-terminal cysteine GST = target: T1, N-terminal cysteine GST (Schistosoma japonicum, UniProt P08515); experiment: In vivo time-course labelling of N-terminal cysteine GST in live bacterial cells; type: cell-based, E. coli; details: cells expressing labelled GST, FIG. 15
T1 construct: Ssp DnaB intein tag (pTWIN2) (N, cleaved yes); expressed in transfected cells; host or cells: E. coli ER2566 transformed with pTWIN2-GST
T1 sequence (P08515 whole entry, added parts left off): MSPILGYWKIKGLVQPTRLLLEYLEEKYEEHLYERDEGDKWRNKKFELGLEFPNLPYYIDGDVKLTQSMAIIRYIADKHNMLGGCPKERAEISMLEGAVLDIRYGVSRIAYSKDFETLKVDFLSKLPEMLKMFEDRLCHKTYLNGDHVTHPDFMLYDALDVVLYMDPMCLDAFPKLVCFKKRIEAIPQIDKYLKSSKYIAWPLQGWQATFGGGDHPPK
Procedure: To generate in vivo proteins having N-terminal cysteine residues, bacterial cells expressing N-terminal cysteine-containing proteins EGFP and GST fused to the C-terminus of the Ssp DnaB mini-intein were induced to undergo self-cleavage, releasing the N-terminal cysteine protein, then incubated with the probes over a period of 24 h.
Briefly, the above bacterial constructs were transformed into the E. coli expression strain ER2566 (NEB) and grown in 100 mg/L ampicillin containing LB media at 37° C. […]
For the time-course labelling experiments, a small sample of cells was removed at each time interval, quenched with 0.01M cysteine, and lysed by boiling with SDS loading buffer. The resulting sample was analyzed directly on a 12% SDS-PAGE. Fluorescence labelling was visualized with a Typhoon™ fluorescence scanner (Amersham Biosciences). Biotinylated proteins were detected by western blotting (with anti-biotin-HRP) with the Enhanced ChemiLuminescent™ kit (Amersham).
Results are shown in FIG. 13, where i=cells labelled with probe 2 (FL), ii=cells labelled with probe 3 (TMR) and iii=cells labelled with probe 5 (biotin) (lanes 1-8 are samples taken at 0 min, 10 min, 30 min, 1 h, 3 h, 6 h, 12 h and 24 h, respectively). The results of the 24 hour time-course are quantified in FIG. 14 (FL=♦, TMR=▪ and BIOTIN=▴).

With O=C(CCCCC1SCC2NC(=O)NC21)NCC(=O)SCc1ccccc1 (stereo not drawn) [Probe 5, [5-(2-oxo-hexahydro-thieno[3,4-d]imidazol-6-yl)-pentanoylamino]-thioacetic acid S-benzyl ester] the cell toxicity (HEK293 cells) was “No cell toxicity was observed”.
CN(C)c1ccc2c(c1)Oc1cc(N(C)C)ccc1C21OC(=O)c2cc(C(=O)NCC(=O)SCc3ccccc3)ccc21 [Probe 3, amino thioacetic acid S-benzyl ester of 5-carboxy-tetramethylrhodamine] was tested, and the localization of labelling ([1]; 100 μM probe, 24 h) was “the majority of the labelling occurred inside the nucleus”, the FRET signal ([1]; excitation 436±10 nm, emission 620±30 nm) was “clear FRET signal in the nucleus of the labelled cells” and the site-specificity of labelling [2] was “labelling occurred ONLY with proteins possessing an N-terminal cysteine”. For the same compound, the FRET signal (N-terminal cysteine EGFP) was “a clear FRET signal was observed”.
O=C(CNC(=O)c1ccc(C2=C3C=CC(O)C=C3Oc3cc(O)ccc32)c(C(=O)O)c1)SCc1ccccc1 (stereo not drawn) [Probe 2, N-benzylsulfanylcarbonylmethyl-6-(3,6-dihydroxy-3H-xanthen-9-yl)-isophthalamic acid] was tested, and the “specificity of labelling inside the live cell (SDS-PAGE)” value (N-terminal cysteine GST) was “only the desired protein was labelled specifically, as well as covalently, inside the live cell, with little or no background observed”.
